Results on 1 molecule are retold here after patent US10398692B2, “Terconazole composition and method” (Curatek Pharmaceuticals Holding, Inc., priority 2006, dated 2019).

As a reminder, the solubility is the dissolved amount per volume that the medium holds. Low values mean a poorly soluble substance, high ones a readily soluble substance.

The nature of data set [1]: Solubility of terconazole in water at adjusted pH (Table 1A). The data set is classed as physicochemical. The conditions noted are these: for solubility: water. The text has this: In a related experiment, the solubility of terconazole in water was increased to about 2.9 percent by weight using acetic acid at pH of about 5.
For data set [2] the following is noted: cited from earlier work.

In brackets after ≈: the same amount, converted by molar mass.

As for `CC(C)N1CCN(c2ccc(OCC3COC(Cn4cncn4)(c4ccc(Cl)cc4Cl)O3)cc2)CC1` (stereo not drawn) [Terconazole, cis-1-[p[[2-(2,4-dichlorophenyl)-2-(1H-1,2,4-triazol-1-ylmethyl)-1,3-dioxolan-4-yl]methoxy]phenyl]-4-isopropylpiperazine], the solubility in data set [1] (aqueous buffer, pH 4.23 adjusted with HCl) is 3400 µg/mL (≈ 6.39 mM); in data set [1] (aqueous buffer, pH 4.99 adjusted with acetic acid), 29400 µg/mL (≈ 55.2 mM); in data set [1] (pH 7.1, pH not adjusted), 70 µg/mL (≈ 0.131 mM). Besides, the “solubility of terconazole in water” value in data set [1] (using acetic acid at pH of about 5) was “about 2.9 percent by weight”. Also, the solubility in water result in data set [2] is on record as “about 0.007 percent by weight”.
